Experimental data taken from paper doi:10.64898/2025.12.04.692396, “Mechanisms of ligand recognition and channel opening for P2X2 receptors in lipid nanodiscs” (bioRxiv, 2025).
Residue numbers refer to the chain shown, from its start.

Columns and labels:
Format in all cases: cell-based
[1] = target: T1, hP2X2R (human P2X2 receptor) (Homo sapiens, UniProt Q9UBL9, R130A)
T1 construct: gene P2RX2; hP2X2-L
T1 sequence (Q9UBL9 1-471 R130A): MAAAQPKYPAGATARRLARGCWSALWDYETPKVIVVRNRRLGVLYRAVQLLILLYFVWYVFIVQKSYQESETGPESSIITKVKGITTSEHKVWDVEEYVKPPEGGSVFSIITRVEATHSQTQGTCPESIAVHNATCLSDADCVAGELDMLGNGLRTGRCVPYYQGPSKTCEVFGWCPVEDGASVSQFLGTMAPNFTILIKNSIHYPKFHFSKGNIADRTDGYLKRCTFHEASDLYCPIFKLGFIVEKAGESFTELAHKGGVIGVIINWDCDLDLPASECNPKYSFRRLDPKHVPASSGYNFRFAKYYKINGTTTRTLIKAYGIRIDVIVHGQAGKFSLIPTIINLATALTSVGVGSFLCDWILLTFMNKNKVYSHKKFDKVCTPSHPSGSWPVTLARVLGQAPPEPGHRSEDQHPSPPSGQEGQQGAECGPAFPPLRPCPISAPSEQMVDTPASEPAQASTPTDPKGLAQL

[2] = target: T2, hP2X2R (human P2X2 receptor) (Homo sapiens, UniProt Q9UBL9)
T2 construct: gene P2RX2; hP2X2-L
T2 sequence (Q9UBL9 1-471): T1 sequence (Q9UBL9 1-471 R130A) with A130R

[3] = target: T1, hP2X2R (human P2X2 receptor); assay: whole-cell patch clamp in HEK293 cells, EDTA solution
[4] = target: T3, hP2X2R (human P2X2 receptor) (Homo sapiens, UniProt Q9UBL9); assay: cryo-EM structure in nanodiscs; whole-cell patch clamp EC50 in EDTA ([…] with divalent cations)
T3 construct: gene P2RX2; hP2X2-L (Q9UBL9-1) with ATP4−; hP2X2-S (Q9UBL9-2) with Mg-ATP2−; homotrimer in MSP1E3D1 lipid nanodiscs
T3 sequence (Q9UBL9 1-404 isoform Q9UBL9-2): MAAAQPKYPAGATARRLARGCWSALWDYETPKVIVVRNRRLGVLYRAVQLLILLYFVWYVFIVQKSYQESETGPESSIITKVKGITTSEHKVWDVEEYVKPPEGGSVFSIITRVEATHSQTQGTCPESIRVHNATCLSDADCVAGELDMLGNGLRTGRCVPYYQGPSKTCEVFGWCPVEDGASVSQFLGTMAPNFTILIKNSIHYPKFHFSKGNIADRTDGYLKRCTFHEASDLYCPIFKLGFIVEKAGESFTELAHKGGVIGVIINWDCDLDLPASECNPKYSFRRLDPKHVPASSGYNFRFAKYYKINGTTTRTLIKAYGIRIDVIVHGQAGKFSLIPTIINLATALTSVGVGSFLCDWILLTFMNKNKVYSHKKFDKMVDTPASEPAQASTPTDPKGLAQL

[5] = target: T4, hP2X2R (human P2X2 receptor) (Homo sapiens, UniProt Q9UBL9, R130E); assay: whole-cell patch clamp in HEK293 cells, EDTA solution
T4 construct: gene P2RX2; hP2X2-L
T4 sequence (Q9UBL9 1-471 R130E): T1 sequence (Q9UBL9 1-471 R130A) with A130E

| SMILES | whole-cell patch clamp in HEK293 cells (weak activation) [1] | whole-cell patch clamp in HEK293 cells (weak activation) [2] | EC50 [3] [µM] | EC50 [4] [µM] | EC50 [5] [µM] |
| --- | --- | --- | --- | --- | --- |
| Nc1ncnc2c1ncn2[C@@H]1O[C@H](COP(=O)(O)CP(=O)(O)OP(=O)(O)O)[C@@H](O)[C@H]1O [α,β-Methylene-ATP] | α,β-Methylene-ATP could only weakly activate either WT hP2X2 or the R130A mutant | α,β-Methylene-ATP could only weakly activate either WT hP2X2 or the R130A mutant | – | – | – |
| Nc1ncnc2c1ncn2[C@@H]1O[C@H](COP(=O)(O)OP(=O)(O)OP(=O)(O)O)[C@@H](O)[C@H]1O [ATP] | – | – | 3.7 ± 0.9 | 1.4 ± 0.4 | 4 ± 0.9 |
